Kd data for 71 compounds are collected here from PubChem BioAssay AID608 (Sanford-Burnham Center for Chemical Genomics, 2007).

Molecules are shown by their SMILES. The source made the active and inactive calls. No rule for the calls is given here. Bounds are passed on as bounds.

A word on the Kd: it is a measure of binding affinity in units of concentration.

Peptidyl-prolyl cis-trans isomerase FKBP1A (Homo sapiens), sequence (P62942 whole entry, looked up): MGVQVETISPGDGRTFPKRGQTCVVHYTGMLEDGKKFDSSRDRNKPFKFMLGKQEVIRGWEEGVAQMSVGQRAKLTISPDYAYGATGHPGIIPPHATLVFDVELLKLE

This experiment has as its target Peptidyl-prolyl cis-trans isomerase FKBP1A (Homo sapiens) (UniProt P62942). Nature of the experiment: FKBP12 binders, biophysical, NMR detection (AID 608). Conditions: NMR binding, purified FKBP12.
Regarding `CCN(CC)S(=O)(=O)c1ccc(F)cc1`, the Kd is > 4 mM (inactive).

Turning to `COC(=O)c1ccc(N2CCCC2)nc1`, the Kd was > 4 mM (inactive). As for `O=C(c1cccc(-n2cnnn2)c1)N1CCOCC1`, the figure is > 4 mM (inactive). Then `Cc1sc(CCc2nc(-c3ccccc3)c(C)s2)nc1-c1ccccc1`, with “inactive”. In the case of `Cc1nn(C)c(N2CCOCC2)c1N`, the Kd was > 4 mM (inactive). As for `CC1CCN(C(=S)c2ccccc2O)CC1`, the figure is > 4 mM (inactive). `CC(=O)OCC(=O)[C@@]1(O)CCC2C3CC[C@@H]4C[C@H](O)CC[C@]4(C)C3C(=O)C[C@@]21C` (stereo partly specified): the Kd is > 4 mM (inactive). For `COc1cc(C)c(Cl)cc1S(=O)(=O)N(C)C`, the Kd is > 4 mM (inactive). Then `COc1cccc(NC(=O)c2ocnc2C)c1`, with > 4 mM (inactive). Regarding `C=CCc1cc(C(=O)N2CCCCC2)ccc1O`, the Kd was > 4 mM (inactive). Then `O=C(NCc1cccs1)c1ccncc1`, with > 4 mM (inactive); and `COC(=O)c1cncn1C`, with > 4 mM (inactive). As for `COC(=O)Cc1cc(=O)n(-c2ccccc2)[nH]1`, the figure is > 4 mM (inactive); as for `O=c1/c(=C/c2cccs2)sc2ncnn12`, > 4 mM (inactive); as for `C=CCn1c(-c2ccc(O)cc2)n[nH]c1=S`, > 4 mM (inactive). Then `COc1nc(C)ccc1-c1noc(-c2ccco2)n1`, with > 4 mM (inactive); and `CN(C)S(=O)(=O)NCc1ccc2c(c1)OCO2`, with > 4 mM (inactive); and `S=C(c1ccc2c(c1)OCO2)N1CCCC1`, with > 4 mM (inactive).

In the case of `Cc1oc(-c2ccccc2)nc1CC(=O)O`, the Kd was > 4 mM (inactive).

`C[C@@H]1CC[C@H]2[C@@H](C)C(=O)O[C@@H]3OC4(C)CC[C@@H]1[C@]32OO4`: the Kd was > 4 mM (inactive). As for `CC1(C)Cc2cccc(CO)c2O1`, the figure is > 4 mM (inactive); as for `O=C(O)CSCC(=O)Nc1cccc(O)c1`, > 4 mM (inactive). Then `C/C1=C/CC(C)(C)/C=C/C/C(C)=C/CC1`, with > 4 mM (inactive).

On to `COC(=O)[C@]1(C)CC[C@]2(C)CC[C@]3(C)C4=CCc5c(cc(O)c(O)c5C)[C@]4(C)CC[C@@]3(C)C2C1` (stereo partly specified), for which the Kd is > 4 mM (inactive). Then `NC(=O)c1cccc2c1OCCO2`, with > 4 mM (inactive); and `C[C@H]1O[C@@H](O[C@H]2[C@@H](O)C[C@H](O[C@H]3[C@@H](O)C[C@H](O[C@H]4CC[C@]5(C)C6CC[C@]7(C)[C@@H](C8=CC(=O)OC8)CC[C@]7(O)C6CC[C@@H]5C4)O[C@@H]3C)O[C@@H]2C)C[C@H](O)[C@@H]1O` (stereo partly specified), with > 4 mM (inactive); and `CC(=O)Nc1ccc(-c2nc(C)c(C(C)=O)n2O)cc1`, with > 4 mM (inactive). Then `CC1=CC2C(C(C)C)CCC(C)(O)C2CC1` (stereo unspecified), with > 4 mM (inactive). On to `CC(=O)OC1CCC2(O)CC1(C)CCC1C2CC1(C)C` (stereo unspecified), for which the Kd is > 4 mM (inactive). As for `O=C(CC1NC(=O)NC1=O)Nc1ccccc1` (stereo unspecified), the figure is > 4 mM (inactive). As for `O=C1NC(=O)/C(=C\c2ccco2)S1`, the figure is > 4 mM (inactive); as for `O=C1C2C3C=CC(C3)C2C(=O)N1c1ccccn1` (stereo unspecified), > 4 mM (inactive). Then `Nc1cccc(CC(=S)N2CCOCC2)c1`, with > 4 mM (inactive); and `Nc1cc(C(=O)N2CCCC2)cc(C(=O)N2CCCC2)c1`, with > 4 mM (inactive); and `CC(NC(=O)c1ccco1)C1CCCO1` (stereo unspecified), with > 4 mM (inactive). For `CC(C)=CC1C(C(=O)O)C1(C)C` (stereo unspecified), the Kd was > 4 mM (inactive). Then `Cn1c(C(=O)O)ccc1S(N)(=O)=O`, with > 4 mM (inactive). Then `Cc1ccccc1-n1c(-c2cccnc2)n[nH]c1=S`, with > 4 mM (inactive); and `Nc1ccc(N2CCOCC2)c(Cl)c1`, with > 4 mM (inactive); and `CC(=O)Oc1ccc2c(c1)c(C(C)=O)c(C)n2C`, with > 4 mM (inactive). Consider `CC(CCC(=O)O)[C@H]1CCC2C3CC[C@@H]4CCCC[C@]4(C)C3CC[C@@]21C` (stereo partly specified), for which the Kd was > 4 mM (inactive). As for `COc1ccc(-c2cc(=O)c3c(O)cc(O)c(-c4cc(-c5cc(=O)c6c(O)cc(O)cc6o5)ccc4OC)c3o2)cc1`, the figure is > 4 mM (inactive). Then `CCC(C)C(=O)O[C@H]1[C@H](O)C2C(CN3CC(C)CCC3[C@@]2(C)O)C2C[C@]34O[C@]5(O)C(OC(=O)C(C)(O)C(C)O)CC[C@@]3(C)C5C(OC(C)=O)[C@@H](OC(C)=O)C4[C@@]21O` (stereo partly specified), with > 4 mM (inactive); and `O=C(Nc1cccc2ncccc12)c1cccnc1`, with > 4 mM (inactive). Then `COC(=O)CCC(C)[C@H]1CCC2C3C(C[C@H](O)[C@@]21C)[C@@]1(C)CC[C@@H](O)C[C@H]1C[C@H]3O` (stereo partly specified), with > 4 mM (inactive); and `NC(=O)CCN1C(=O)c2ccccc2C1=O`, with > 4 mM (inactive). In the case of `O=C(c1ccccc1)c1cncc(Br)c1`, the Kd is > 4 mM (inactive). For the compound `CN1CCC(NC(=O)c2c(F)cccc2Cl)CC1`, the Kd was > 4 mM (inactive). With `CSc1nnc2c(n1)OC=Nc1ccccc1-2`, the Kd was > 4 mM (inactive). For `Cn1cnc2ccc([N+](=O)[O-])cc2c1=O`, the Kd was > 4 mM (inactive).

Regarding `COC(=O)c1ccc2nsnc2c1`, the Kd is > 4 mM (inactive). As for `O=C1C2C3C=CC(C3)C2C(=O)N1c1cccnc1` (stereo unspecified), the figure is > 4 mM (inactive); as for `O=C(O)CCCC(=O)Nc1nccs1`, > 4 mM (inactive); as for `N/N=C1\CCCc2c1no[n+]2[O-]`, > 4 mM (inactive). Take `CC(=O)N1CCN(c2ccc(N)cc2)CC1`: the Kd is > 4 mM (inactive). Then `CC(=O)NC(=S)Nc1ccccc1C`, with > 4 mM (inactive). As for `Fc1ccc2onc(C3CCNCC3)c2c1`, the figure is > 4 mM (inactive). As for `COC(=O)c1ccc(NC(=O)CC2NCCNC2=O)cc1` (stereo unspecified), the figure is > 4 mM (inactive); as for `O=C(O)c1csc2ccccc12`, > 4 mM (inactive). In the case of `Cc1ccc(CO)o1`, the Kd was > 4 mM (inactive). As to `CN1C(=O)C(Cc2c[nH]c3ccccc23)C(=O)N(C)C1=O`, the Kd was > 4 mM (inactive).

For the compound `CC(C)(OC(=O)c1ccccc1)[C@@H]1Cc2cc3ccc(=O)oc3cc2O1`, the Kd is > 4 mM (inactive). As for `Cc1nc(-c2cccc(-c3noc(C)n3)c2)no1`, the figure is > 4 mM (inactive). Then `Cn1cnnc1SCC(=O)Nc1ccccc1`, with > 4 mM (inactive). As for `O=C(c1sc2cc(Cl)cc(Cl)c2c1Cl)N1CCOCC1`, the entry is “inactive”; as for `COc1ccc2c(Cl)c(C(=O)N3CCOCC3)sc2c1`, “inactive”. For `COc1cc(OC)c2c(c1Cl)OC1(C2=O)C(O)=CC(=O)CC1C` (stereo unspecified), the Kd is > 4 mM (inactive).

As for `Cc1sc2nc(-c3ccco3)oc(=O)c2c1C`, the Kd was > 4 mM (inactive). As for `CCC(=O)NC(=S)Nc1ccc(C(N)=O)cc1`, the figure is > 4 mM (inactive). Then `NS(=O)(=O)c1ccc(NC(=O)C2CC2)cc1`, with > 4 mM (inactive). Then `CCOC(=O)c1[nH]cnc1C(=O)OC(C)C`, with > 4 mM (inactive).
